Results taken from PMC4900628, “Critical Evaluation of P2X7 Receptor Antagonists in Selected Seizure Models” (PLoS ONE, 2016).

Assays:
[1] = parameters: method as in earlier work; conditions: 45.5 mg/kg i.p. every 48h for 1 month, ref [11] of S1 File, cited from earlier work
[2] = test system: electroshock-induced tonic (hindlimb extension) seizures; assay: Maximal electroshock seizure threshold test (MES-T); format: in vivo; conditions: mice
Experimental: The stimulus train was applied via ear-clip electrodes (sinusoidal pulses 4-14 mA, 50 Hz, 0.2 s duration) by means of a constant current stimulator (rodent-shocker type 221; Hugo Sachs Elektronik, March-Hugstetten, Germany). […] Groups of 20 mice were used. Control groups, which received the corresponding vehicle, were tested together with the compound-treated groups on the same experimental day. Current intensity-effect curves were obtained on the basis of the number of animals responding with the endpoint at the corresponding current value. The results are calculated as convulsive current fifty (CC50) values (current intensity in mA, necessary to produce tonic hindlimb extension in 50% of the mice tested) including the confidence limits for 95% probability. […] Chemicals, Toronto, Canada) was slowly added. The pH was adjusted with 1N NaOH (similar amount of NaOH as HCl), all with continuous stirring. […] The drug solutions or suspensions were prepared immediately before use; all doses refer to the salts. Animals in the control group received equivalent volumes of the vehicle (in mice always 10 ml/kg, in rats 1 ml/kg [JNJ], 3 ml/kg [AFC] or 4 ml/kg [BBG, TIIAS], depending on the solubility of the different compounds). Doses and peak time effects were selected on the basis of effective doses from corresponding in vivo studies in the literature: BBG (e.g.), tanshinone IIA (e.g.) and from manufacturer's experimental data: AFC, JNJ (see, [80]). Data were analysed using SigmaPlot (vers. 12.0, Systat Software, Erkrath, Germany) and SPSS (IBM SPSS Statistics 20, […], Germany), respectively. Results are expressed as mean ± SEM. […] In the PTZ-T, the number of animals in the group with clonic seizures and the latency time were analysed using Fisher's exact probability test and the Mann-Whitney rank sum test, respectively. […] In the PTZ-kindling model, the mean seizure stage within a group was calculated in relation to the number of PTZ-injections. […] In fully kindled rats, the calculated mean seizure stage within a group after vehicle- and compound-treatment were compared using a paired t-test. […]

[3] = test system: Iba 1 and GFAP immunoreactivity; assay: Iba 1 and GFAP immunohistochemistry, hippocampus of PTZ-kindled rats; format: in vivo; conditions: hippocampus CA3, 24h after the 25th PTZ injection, pre-treated with AFC or JNJ
Experimental: One day after the last kindling session (after the 25th injection), vehicle/PTZ and compound/PTZ-treated rats as well as vehicle-only-treated or non-treated (naïve) rats as controls were transcardially perfused under deep CO2-anesthesia with 0.9% NaCl-solution, 2% paraformaldehyde (PFA, in 0.1 M sodium acetate buffer, pH 6.5) and 2% PFA/0.1% glutaraldehyde (in 0.1 M sodium borate buffer, pH 8.5) (see [73]). Brains were removed immediately and placed for 24 h in 2% PFA without glutaraldehyde (in 0.1 M sodium borate buffer, pH 8.5) at 4°C for post-fixation. […]
For immunohistochemical studies, free-floating slices were incubated in 0.1 M Sørensen’s phosphate buffer (SPP) containing 1% H2O2 for 25 min. […] The immunoreactivity was evaluated using a light microscope (Axioskop, Zeiss) equipped with a CCD digital camera (AxioCam, ICc 1, Zeiss). For quantitative analysis of the GFAP and Iba 1-staining, images (20x magnification) from the hippocampal CA3 region of vehicle-only (controls) and vehicle/PTZ-treated animals (n = 10) were recorded at constant microscope adjustment and were evaluated with the LSM (LSM 510 Meta, Zeiss) using the semiautomatic image analysis software “Histogram” function. Significant differences were determined by calculating the abundance of densely stained pixels (pixel values lower than 67% of the background) using a two-tailed Wilcoxon rank sum test. […]

SMILES	brain-plasma ratio in mice [1]	brain concentrations in mice ([1]; spectrophotometric analysis) [nM]	seizure threshold in MES-T at the higher doses ([2]; AFC 50 mg/kg, JNJ 30 mg/kg, alone)	anticonvulsant effectiveness of co-administration with carbamazepine compared to carbamazepine alone (MES-T) ([2]; AFC 25 and 50 mg/kg s.c. or JNJ 15 and 30 mg/kg s.c. 30 min before, with carbamazepine 7 mg/kg i.p., P < 0.01)	immunostaining for Iba 1 and GFAP compared to vehicle/PTZ-treated animals [3]
CCOc1ccc(Nc2ccc(/C(=C3C=C/C(=[N+](/CC)Cc4cccc(S(=O)(=O)[O-])c4)C=C/3C)c3ccc(N(CC)Cc4cccc(S(=O)(=O)O)c4)cc3C)cc2)cc1 [Brilliant Blue G]	0.02	150	–	–	–
O=C(NCC1(N2CCN(c3ccccc3)CC2)CCOCC1)c1cccnc1Sc1ccccc1 [JNJ-47965567, N-[[4-(4-phenyl-piperazin-1-yl)tetrahydro-2H-pyran-4-yl]-methyl]-2-(phenyl-thio) nicotinamide]	–	–	small, but non-significant increase in seizure threshold	significantly increased the anticonvulsant effectiveness	clearly reduced
